Experimental data as given in BindingDB's records for doi:10.3109/14756366.2010.616860 (Slovak University of Technology, 2012).
Where “and” joins values, the source holds several entries; their conditions need not be identical. Equal entries are not always repeated.

What was measured:
Assay in all cases: Enzyme Assay
Conditions in all cases: pH 8
[1] = target: Urokinase-type plasminogen activator (Homo sapiens, UniProt P00749)
Procedure: (§1) Data scanning time was set to the 1st and 61st minute after the reaction start. Rutin, esculin, phloridzin and their esters were initially solubilized at a concentration of 10 mM in dimethyl sulphoxide (DMSO) and subsequently incorporated in the reaction mixture to final concentrations in the range of 1-50 μM. Samples were run in triplicate in 96-well plates by MRX microplate reader. Each experiment was performed in triplicate.

Prothrombin = Prothrombin (Bos taurus, UniProt P00735)
Procedure: as §1

Serine protease 1 = target: T1, Serine protease 1 (Bos taurus, UniProt P00760)
T1 sequence (P00760 whole entry): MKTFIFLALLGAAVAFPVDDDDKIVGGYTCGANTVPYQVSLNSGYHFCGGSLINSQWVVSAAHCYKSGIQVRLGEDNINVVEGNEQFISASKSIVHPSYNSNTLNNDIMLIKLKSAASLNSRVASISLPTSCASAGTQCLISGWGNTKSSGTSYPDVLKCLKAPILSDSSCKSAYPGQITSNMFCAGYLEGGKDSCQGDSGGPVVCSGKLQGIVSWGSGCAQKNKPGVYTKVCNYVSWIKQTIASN
Procedure: as §1

[2] = target: Chymotrypsin-like elastase family member 1 (Pig, UniProt P00772)
Procedure: as §1

Sequence of Chymotrypsin-like elastase family member 1 (P00772 whole entry): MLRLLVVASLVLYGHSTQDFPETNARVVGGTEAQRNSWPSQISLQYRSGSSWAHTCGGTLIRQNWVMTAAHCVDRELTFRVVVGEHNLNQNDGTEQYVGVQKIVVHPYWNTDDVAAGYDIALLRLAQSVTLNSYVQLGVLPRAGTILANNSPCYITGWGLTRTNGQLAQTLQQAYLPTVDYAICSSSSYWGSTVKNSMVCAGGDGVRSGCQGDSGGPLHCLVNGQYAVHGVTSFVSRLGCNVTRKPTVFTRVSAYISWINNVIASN

Compound O=c1c(O)c(-c2ccc(O)c(O)c2)oc2cc(O)cc(O)c12 [2-(3,4-dihydroxyphenyl)-3,5,7-trihydroxy-chromone;hydrate] has an IC50 [1] of 20 µM.
N=C(N)Nc1ccc(C(=O)O)cc1 [4-Guanidinobenzoate] gave an IC50 (Prothrombin) of 400 µM, an IC50 (Serine protease 1) of 450 µM and an IC50 [2] of 500 µM. It also gave an IC50 [1] of 20 µM.
For CCCCCCCCCCCC(=O)OCC1OC(Oc2cc3ccc(=O)oc3cc2O)C(O)C(O)C1O (stereo not given) [Esculin laurate], the IC50 (Prothrombin) was 60 µM, the IC50 (Serine protease 1) was 350 µM and the IC50 [2] was 20 µM. For the same compound, the IC50 [1] was 100 µM.
For CCCCCCCCCCCCCC(=O)OCC1OC(Oc2cc3ccc(=O)oc3cc2O)C(O)C(O)C1O (stereo not given) [Esculin myristate], the IC50 (Prothrombin) was 54 µM, the IC50 (Serine protease 1) was 120 µM and the IC50 [2] was 25 µM. For the same compound, the IC50 [1] was 100 µM.
CCCCCCCCCCCCCCCC(=O)OCC1OC(Oc2cc3ccc(=O)oc3cc2O)C(O)C(O)C1O (stereo not given) [Esculin palmitate] was tested, and the IC50 (Prothrombin) was 54 µM, the IC50 (Serine protease 1) was 210 µM and the IC50 [2] was 30 µM. The IC50 [1] was 100 µM.
In the case of CCCCCCCCCCCCCCCCCC(=O)OCC1OC(Oc2cc3ccc(=O)oc3cc2O)C(O)C(O)C1O (stereo not given) [Esculin stearate], the IC50 (Prothrombin) is reported as 52 µM, the IC50 (Serine protease 1) is reported as 50 µM and the IC50 [2] is reported as 60 µM. For the same compound, the IC50 [1] was 89 µM.
Compound O=c1ccc2cc(OC3OC(CO)C(O)C(O)C3O)c(O)cc2o1 (stereo not given) [Esculin] has an IC50 (Prothrombin) of 250 µM, an IC50 (Serine protease 1) of 150 µM and an IC50 [2] of 100 µM. It also gave an IC50 [1] of 25 µM.
CCCCCCCCCCCC(=O)OCC1OC(Oc2cc(O)cc(O)c2C(=O)CCc2ccc(O)cc2)C(O)C(O)C1O (stereo not given) [Phloridzin laurate] showed an IC50 (Prothrombin) of 70 µM, an IC50 (Serine protease 1) of 55 µM and an IC50 [2] of over 500 µM. For the same compound, the IC50 [1] was 9 µM.
CCCCCCCCCCCCCC(=O)OCC1OC(Oc2cc(O)cc(O)c2C(=O)CCc2ccc(O)cc2)C(O)C(O)C1O (stereo not given) [Phloridzin myristate] gave an IC50 (Prothrombin) of 75 µM, an IC50 (Serine protease 1) of 65 µM and an IC50 [2] of over 500 µM. For the same compound, the IC50 [1] was 33 µM.
With CCCCCCCCCCCCCCCC(=O)OCC1OC(Oc2cc(O)cc(O)c2C(=O)CCc2ccc(O)cc2)C(O)C(O)C1O (stereo not given) [Phloridzin palmitate] the IC50 (Prothrombin) was 75 µM, the IC50 (Serine protease 1) was 60 µM and the IC50 [2] was over 500 µM. For the same compound, the IC50 [1] was 18 µM.
In the case of CCCCCCCCCCCCCCCCCC(=O)OCC1OC(Oc2cc(O)cc(O)c2C(=O)CCc2ccc(O)cc2)C(O)C(O)C1O (stereo not given) [Phloridzin stearate], the IC50 (Prothrombin) is reported as 65 µM, the IC50 (Serine protease 1) is reported as 215 µM and the IC50 [2] is reported as over 500 µM. It also gave an IC50 [1] of 13 µM.
For O=C(CCc1ccc(O)cc1)c1c(O)cc(O)cc1OC1OC(CO)C(O)C(O)C1O (stereo not given) [Phloridzin], the IC50 (Prothrombin) was 320 µM, the IC50 (Serine protease 1) was 90 µM and the IC50 [2] was 100 µM. It also gave an IC50 [1] of 80 µM.
For CCCC(=O)OC1C(C)OC(OCC2OC(Oc3c(-c4ccc(O)c(O)c4)oc4cc(O)cc(O)c4c3=O)C(O)C(O)C2O)C(O)C1O (stereo not given) [Rutin butyrate], the IC50 (Prothrombin) was 22 µM, the IC50 (Serine protease 1) was over 500 µM and the IC50 [2] was over 500 µM. The IC50 [1] was 8 µM.
For CCCCCC(=O)OC1C(C)OC(OCC2OC(Oc3c(-c4ccc(O)c(O)c4)oc4cc(O)cc(O)c4c3=O)C(O)C(O)C2O)C(O)C1O (stereo not given) [Rutin caproate], the IC50 (Prothrombin) was 32 µM, the IC50 (Serine protease 1) was over 500 µM and the IC50 [2] was over 500 µM. The IC50 [1] was 14 µM and 20 µM.
With CCCCCCCC(=O)OC1C(C)OC(OCC2OC(Oc3c(-c4ccc(O)c(O)c4)oc4cc(O)cc(O)c4c3=O)C(O)C(O)C2O)C(O)C1O (stereo not given) [Rutin caprylate] the IC50 (Prothrombin) was 25 µM, the IC50 (Serine protease 1) was over 500 µM and the IC50 [2] was over 500 µM. It also gave an IC50 [1] of 32 µM.
In the case of CCCCCCCCCCCC(=O)OC1C(C)OC(OCC2OC(Oc3c(-c4ccc(O)c(O)c4)oc4cc(O)cc(O)c4c3=O)C(O)C(O)C2O)C(O)C1O (stereo not given) [Rutin laurate], the IC50 (Prothrombin) is reported as 14 µM, the IC50 (Serine protease 1) is reported as 90 µM and the IC50 [2] is reported as over 500 µM. The IC50 [1] was 50 µM.
For CC/C=C\C/C=C\C/C=C\CCCCCCCC(=O)OC1C(C)OC(OCC2OC(Oc3c(-c4ccc(O)c(O)c4)oc4cc(O)cc(O)c4c3=O)C(O)C(O)C2O)C(O)C1O (stereo not given) [Rutin linolenate], the IC50 (Prothrombin) was 7 µM, the IC50 (Serine protease 1) was 50 µM and the IC50 [2] was over 500 µM. For the same compound, the IC50 [1] was 20 µM.
Work on CCCCCCCCCCCCCC(=O)OC1C(C)OC(OCC2OC(Oc3c(-c4ccc(O)c(O)c4)oc4cc(O)cc(O)c4c3=O)C(O)C(O)C2O)C(O)C1O (stereo not given) [Rutin myristate] yielded an IC50 (Prothrombin) of 10 µM, an IC50 (Serine protease 1) of 130 µM and an IC50 [2] of over 500 µM. The IC50 [1] was 15 µM.
In the case of CCCCCCCC/C=C\CCCCCCCC(=O)OC1C(C)OC(OCC2OC(Oc3c(-c4ccc(O)c(O)c4)oc4cc(O)cc(O)c4c3=O)C(O)C(O)C2O)C(O)C1O (stereo not given) [Rutin oleate], the IC50 (Prothrombin) is reported as 9 µM, the IC50 (Serine protease 1) is reported as 60 µM and the IC50 [2] is reported as over 500 µM. It also gave an IC50 [1] of 25 µM.
For CCCCCCCCCCCCCCCC(=O)OC1C(C)OC(OCC2OC(Oc3c(-c4ccc(O)c(O)c4)oc4cc(O)cc(O)c4c3=O)C(O)C(O)C2O)C(O)C1O (stereo not given) [Rutin palmitate], the IC50 (Prothrombin) was 3 µM, the IC50 (Serine protease 1) was 40 µM and the IC50 [2] was over 500 µM. The IC50 [1] was 15 µM.
CCCCCCCCCCCCCCCCCC(=O)OC1C(C)OC(OCC2OC(Oc3c(-c4ccc(O)c(O)c4)oc4cc(O)cc(O)c4c3=O)C(O)C(O)C2O)C(O)C1O (stereo not given) [Rutin stearate] was tested, and the IC50 (Prothrombin) was 8 µM, the IC50 (Serine protease 1) was 40 µM and the IC50 [2] was over 500 µM. It also gave an IC50 [1] of 15 µM.
In the case of CC1OC(OCC2OC(Oc3c(-c4ccc(O)c(O)c4)oc4cc(O)cc(O)c4c3=O)C(O)C(O)C2O)C(O)C(O)C1O (stereo not given) [Rutin], the IC50 (Prothrombin) is reported as 25 µM, the IC50 (Serine protease 1) is reported as 40 µM and the IC50 [2] is reported as 100 µM. It also gave an IC50 [1] of 6 µM.
